According to article PMC8894927, “Oxylipin signaling in salt-stressed soybean is modulated by ligand-dependent interaction of Class II acyl-CoA-binding proteins with lipoxygenase” (The Plant Cell, 2021):
“And” between values parts separate entries of the source, which are not always exact repeats. Equal values may be shown once.

Columns and labels:
(His)6-GmACBP4.1_33–354 [1] = test: Isothermal titration calorimetry of acyl-CoA binding (WT protein); design: species or system soybean; conditions: ITC at 25°C; 15 μM protein titrated with 200 μM acyl-CoA; mean ± SD, three experiments; read-out: KD, dissociation constant
Protocol: ITC was conducted with a MicroCal iTC200 system (GE Healthcare) at 25°C in 10 mM sodium phosphate (pH 7) by 20 injections of 1.8-μL acyl-CoAs (200 μM; Avanti Polar Lipids Inc., Alabaster, AL, USA) into the sample cell with 15 μM purified (His)6-GmACBP4.1. Each injection lasted 4 s at 150-s intervals with a stirring speed of 1,000 rpm. Nonspecific heat effects were estimated and corrected after saturation. The baseline was adjusted, and the data were fitted into a single-site binding model using the Origin version 7.0 software (OriginLab).
Supplemental Table 1. Binding constants and thermodynamic parameters for (His)6-GmACBP4.133–354 interaction with acyl-CoAs. (Supports Figure 5A) […]
Isothermal titration calorimetry analysis was performed by titration of 250 μL of 15 μM (His)6-GmACBP4.133–354 with […]
from three independent experiments. n, stoichiometry (number of ligand sites per protein); KD, dissociation constant; ∆H, enthalpy change; −T∆S, entropy change; ∆G, Gibbs free energy.

[2] = system: GmACBP4.1_33–354 interaction with VLXB:StrepII; test: Strep-Tactin pull-down assay with supplemented acyl-CoAs; type: binding, soybean
[3] = system: GmACBP4.1_33–354 interaction with GmPLDα1:StrepII; test: as above; type: binding, soybean; conditions: acyl-CoA 12.5–100 μM, versus control without acyl-CoA
From the text: Figure 6 Specific acyl-CoA species facilitate GmACBP4 interaction with VLXB and GmPLDα1. A, Strep-Tactin pull-down assays. […] (His)6-GmACBP4.1_33–354 were detected in eluates by immunoblotting using anti-ACBP3 antibodies. […] Input lanes represent 1% protein. Arrowheads indicate target bands of 40-kD (His)6-GmACBP4.1_33–354 (apparent: 50 kD). The bound protein fraction was quantified densitometrically. […] B–C, Strep-Tactin pull-down assays with supplemented acyl-CoAs. […] Input lanes represent 5% proteins in (B) or 10% proteins in (C). Arrowheads indicate target bands of 40-kD (His)6-GmACBP4.1_33–354 (apparent: 50kD).
Strep-Tactin pull-down assays were performed using Strep-Tactin XT resins (IBA) following the manufacturer’s instructions. Briefly, 5 μL of resins with/without prebound VLXB:StrepII or GmPLDα1:StrepII (0.5 μM) were agitated with GmACBP4.1_33–354 (0.5 μM) and acyl-CoAs (0, 12.5, 25, 50, and 100 μM) in Buffer W containing 0.1 M Tris–HCl (pH 7), 0.15 M NaCl, 1 mM EDTA and 0.05% (w/v) Triton X-100 at 4°C for 2 h. After three washes in Buffer W, bound proteins were eluted in Buffer W with 50 mM biotin, and analyzed by immunoblotting using anti-ACBP3.1 antibodies.

AtACBP1 = target: AtACBP1; design: method as in Xue et al., 2014; conditions: ref Xue et al., 2014; cited from earlier work
(His)6-GmACBP4.1_33–354 [4] = test: Protein–lipid overlay assay; type: binding, soybean; conditions: commercial strips and PA-spotted nitrocellulose strips; 0.5 μg mL−1 protein
(His)6-GmACBP4.1_33–354 [5] = test: Liposome association assay for PA binding; design: species or system soybean; conditions: PA:di-16:0-PC liposomes, 0–100% (w/w) PA
[6] = acyl-CoA 12.5–100 μM, versus control without acyl-CoA

Structure (SMILES)	Kd ((His)6-GmACBP4.1_33–354 [1])	increase in WT binding with GmPLDα1:StrepII [3]	binding on lipid filter strips ((His)6-GmACBP4.1_33–354 [4])	descending order of affinity to the WT (liposome association) ((His)6-GmACBP4.1_33–354 [5])	also measured
CCCCCCCCCCCCCCCC(=O)SCCNC(=O)CCNC(=O)[C@H](O)C(C)(C)COP(=O)(O)OP(=O)(O)OC[C@H]1O[C@@H](n2cnc3c(N)ncnc32)[C@H](O)[C@@H]1OP(=O)(O)O [C16:0-CoA]	800 ± 100 nM	up to nine-fold			increase in WT binding with VLXB:StrepII [2, 6]: negligible
CCCCCCCC/C=C\CCCCCCCC(=O)SCCNC(=O)CCNC(=O)[C@H](O)C(C)(C)COP(=O)(O)OP(=O)(O)OC[C@H]1O[C@@H](n2cnc3c(N)ncnc32)[C@H](O)[C@@H]1OP(=O)(O)O [C18:1-CoA]	680 ± 80 nM	up to nine-fold			increase in WT binding with VLXB:StrepII [2, 6]: negligible
CC/C=C\C/C=C\C/C=C\CCCCCCCC(=O)SCCNC(=O)CCNC(=O)[C@H](O)C(C)(C)COP(=O)(O)OP(=O)(O)OC[C@H]1O[C@@H](n2cnc3c(N)ncnc32)[C@H](O)[C@@H]1OP(=O)(O)O [C18:3-CoA, linolenoyl-CoA]	1170 nM and 900 to 1200 nM	did not influence			increase in WT binding with VLXB:StrepII ([2]; 100 µM acyl-CoA): nine-fold; Kd (AtACBP1): 400 to 800 nM
CCCCCCCCCCCCCC(=O)OC[C@H](COP(=O)(O)O)OC(=O)CCCCCCCCCCCCC [di-14:0-PA]			lower affinity	di-16:0-PA ≈ di-18:1-PA > di-18:0-PA > di-14:0-PA	
CCCCCCCCCCCCCCCC(=O)OC[C@H](COP(=O)([O-])OCC[N+](C)(C)C)OC(=O)CCCCCCCCCCCCCCC [di-16:0-phosphatidylcholine]			did not interact		
CCCCCCCCCCCCCCCCCC(=O)OC[C@H](COP(=O)(O)O)OC(=O)CCCCCCCCCCCCCCCCC [di-18:0-PA]			lower affinity	di-16:0-PA ≈ di-18:1-PA > di-18:0-PA > di-14:0-PA	
CCCCCCCCC=CCCCCCCCC(=O)OCC(COP(=O)(O)O)OC(=O)CCCCCCCC=CCCCCCCCC (stereo not shown) [di-18:1-PA]				di-16:0-PA ≈ di-18:1-PA > di-18:0-PA > di-14:0-PA	
